Activity calls are given as the source filed them.
How the values were obtained:
[1] = biological target: T1, Corticotropin-releasing factor receptor 2/Corticotropin-releasing factor-binding protein (Homo sapiens, UniProt P24387+Q13324); test: activators of CRF receptor 2 with binding protein – uHTS hits, confirmation (AID 602473); format: functional; details: read-out: EC50_Mean
T1 sequence (Q13324 whole entry): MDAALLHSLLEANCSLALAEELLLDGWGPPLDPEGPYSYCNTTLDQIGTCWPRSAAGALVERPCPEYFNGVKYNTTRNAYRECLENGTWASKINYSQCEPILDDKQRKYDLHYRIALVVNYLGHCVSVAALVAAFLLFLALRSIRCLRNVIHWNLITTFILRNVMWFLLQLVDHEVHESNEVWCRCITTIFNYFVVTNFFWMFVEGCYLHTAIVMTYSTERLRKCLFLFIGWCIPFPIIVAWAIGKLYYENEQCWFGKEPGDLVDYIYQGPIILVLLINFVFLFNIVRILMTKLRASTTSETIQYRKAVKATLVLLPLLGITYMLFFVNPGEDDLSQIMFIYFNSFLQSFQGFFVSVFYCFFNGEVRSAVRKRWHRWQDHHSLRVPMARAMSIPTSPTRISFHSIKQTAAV
T1 sequence (P24387 whole entry): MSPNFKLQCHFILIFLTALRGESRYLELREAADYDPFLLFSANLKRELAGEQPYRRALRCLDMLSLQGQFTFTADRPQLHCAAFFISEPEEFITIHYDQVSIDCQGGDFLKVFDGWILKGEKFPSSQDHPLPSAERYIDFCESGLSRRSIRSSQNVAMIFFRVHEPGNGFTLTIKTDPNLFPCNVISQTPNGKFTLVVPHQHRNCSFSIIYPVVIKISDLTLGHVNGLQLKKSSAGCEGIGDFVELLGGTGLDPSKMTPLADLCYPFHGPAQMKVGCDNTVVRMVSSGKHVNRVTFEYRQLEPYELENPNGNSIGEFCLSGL

[2] = biological target: T2, Ubiquitin-conjugating enzyme E2 N (Homo sapiens, UniProt P61088); format: functional;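 further: Dose-response confirmation in a TR-FRET assay detecting UBC13-driven polyubiquitin chain formation, inhibition measured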
T2 sequence (P61088 whole entry): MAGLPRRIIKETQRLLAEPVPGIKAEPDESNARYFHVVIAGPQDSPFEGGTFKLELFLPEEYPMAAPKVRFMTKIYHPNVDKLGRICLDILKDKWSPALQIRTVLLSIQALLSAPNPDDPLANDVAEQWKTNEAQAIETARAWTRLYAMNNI

Streptococcus = test: GAS UMAA2166 growth inhibition – luminescence, BacTiterGlo, counter-screen for streptokinase expression inhibitor project, dose response (AID 1915); format: functional, organism-based;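 further: potency for reduction of bacterial viability or growth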
[3] = NIH-3T3 fibroblast cytotoxicity, dose response, cytotoxicity control, cell-based, fluorescence, Alamar Blue, secondary assay (AID 2327); format: functional;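 further: NIH-3T3 mouse fibroblasts cultured with fluconazole at 8 µg/mL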
[4] = test system: Streptococcus sp. 'group A'; test: Streptococcus pyogenes SK(-)GAS viability under kanamycin – luminescence, BacTiterGlo, confirmation, counter-screen for streptokinase expression inhibitor project, dose response (AID 1900); format: functional, organism-based
INS1 = test: INS-1E survival protection against cytokine death – cell-based, luminescence, retest, dose response (AID 449756); format: functional; details: Rattus norvegicus;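 further: cell death triggered by IL-1 beta plus TNF-alpha plus IFN-gamma mixture; protective hits raise ATP signal compared with cytokine alone wells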
[5] = fluconazole-exposed Candida albicans growth modulators – fluorescence, retest, confirmation (AID 2467); format: functional, cell-based
Streptokinase A = biological target: T3, Streptokinase A (Streptococcus pyogenes serotype M1, UniProt P10520); test: viability-normalized secreted streptokinase activity reduction – plasminogen activation absorbance, OD405, dose response (AID 1914); format: functional, Streptococcus pyogenes M1 GAS;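 further: secreted streptokinase activity via plasminogen activation per viability signal from cell pellet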
T3 sequence (P10520 whole entry): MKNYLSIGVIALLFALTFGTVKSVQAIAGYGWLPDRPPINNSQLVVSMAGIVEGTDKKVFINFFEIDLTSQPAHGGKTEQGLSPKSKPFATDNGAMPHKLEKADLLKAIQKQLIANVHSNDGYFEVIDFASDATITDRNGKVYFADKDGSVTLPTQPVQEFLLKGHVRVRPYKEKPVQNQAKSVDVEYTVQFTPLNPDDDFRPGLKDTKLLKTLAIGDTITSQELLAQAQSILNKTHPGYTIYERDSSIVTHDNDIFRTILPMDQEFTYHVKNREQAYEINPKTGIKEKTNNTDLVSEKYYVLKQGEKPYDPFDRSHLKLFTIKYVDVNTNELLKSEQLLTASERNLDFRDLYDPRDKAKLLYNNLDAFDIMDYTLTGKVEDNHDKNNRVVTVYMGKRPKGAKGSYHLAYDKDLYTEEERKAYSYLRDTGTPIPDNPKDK

[6] = microbe, parasite or virus in culture; format: functional; details: Mycobacterium tuberculosis
[7] = viability of uninfected HEp-2 cells – cell-based, HTS, cytotoxicity control for RSV inhibitor project, dose response (AID 2410); format: functional; details: human respiratory syncytial virus
H9c2 = test: cells; format: functional, cell-based; details: Rattus norvegicus, H9c2, Myocardium;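 further: confirmatory concentration-response retest of ultra-high-throughput screening hits for modulation of myocardial damage; cell death induced by hydrogen peroxide oxidative stress; compound pretreatment for 60 min then peroxide exposure for 2 h; potency is for protecting the cells against peroxide damage rather than for killing them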
[8] = biological target: T4, Short transient receptor potential channel 4 (Mus musculus, UniProt Q9QUQ5); test: calcium entry via TRPC4 opening agents – cell-based, HEK293 TRPC4/mu-opioid, Fluo-4 calcium, dose response (AID 434937); format: functional
T4 sequence (Q9QUQ5 whole entry): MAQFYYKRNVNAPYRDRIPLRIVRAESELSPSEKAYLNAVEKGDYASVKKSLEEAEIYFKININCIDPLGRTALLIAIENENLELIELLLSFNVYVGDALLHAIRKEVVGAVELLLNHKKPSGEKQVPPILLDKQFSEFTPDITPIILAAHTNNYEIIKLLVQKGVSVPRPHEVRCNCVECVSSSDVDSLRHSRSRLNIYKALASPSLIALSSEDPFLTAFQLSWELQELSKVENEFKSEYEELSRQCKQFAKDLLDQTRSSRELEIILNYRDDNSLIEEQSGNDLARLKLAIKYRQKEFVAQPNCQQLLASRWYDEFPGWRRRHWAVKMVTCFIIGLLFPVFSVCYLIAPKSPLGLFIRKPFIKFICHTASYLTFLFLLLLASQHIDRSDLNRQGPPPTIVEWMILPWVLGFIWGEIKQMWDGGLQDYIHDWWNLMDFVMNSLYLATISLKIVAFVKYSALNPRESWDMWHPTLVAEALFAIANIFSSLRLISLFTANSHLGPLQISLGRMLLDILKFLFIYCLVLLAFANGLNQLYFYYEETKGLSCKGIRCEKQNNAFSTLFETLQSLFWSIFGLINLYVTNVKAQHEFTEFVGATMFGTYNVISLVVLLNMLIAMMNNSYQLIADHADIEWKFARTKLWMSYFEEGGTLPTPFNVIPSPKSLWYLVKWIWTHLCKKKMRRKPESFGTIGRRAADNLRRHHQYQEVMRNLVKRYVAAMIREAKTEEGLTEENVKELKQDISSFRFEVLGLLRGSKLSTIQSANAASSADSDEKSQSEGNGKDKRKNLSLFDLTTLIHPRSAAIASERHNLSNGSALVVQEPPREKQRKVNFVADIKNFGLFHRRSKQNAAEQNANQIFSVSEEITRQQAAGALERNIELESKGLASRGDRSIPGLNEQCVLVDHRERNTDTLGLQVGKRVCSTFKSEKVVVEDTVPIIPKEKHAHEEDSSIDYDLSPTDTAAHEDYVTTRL

Cytochrome P450 2D6 = Cytochrome P450 2D6 (Homo sapiens, UniProt P10635);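 further: CYP2D6 member of a cytochrome P450 panel assay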
Cytochrome P450 2D6, sequence (P10635 whole entry): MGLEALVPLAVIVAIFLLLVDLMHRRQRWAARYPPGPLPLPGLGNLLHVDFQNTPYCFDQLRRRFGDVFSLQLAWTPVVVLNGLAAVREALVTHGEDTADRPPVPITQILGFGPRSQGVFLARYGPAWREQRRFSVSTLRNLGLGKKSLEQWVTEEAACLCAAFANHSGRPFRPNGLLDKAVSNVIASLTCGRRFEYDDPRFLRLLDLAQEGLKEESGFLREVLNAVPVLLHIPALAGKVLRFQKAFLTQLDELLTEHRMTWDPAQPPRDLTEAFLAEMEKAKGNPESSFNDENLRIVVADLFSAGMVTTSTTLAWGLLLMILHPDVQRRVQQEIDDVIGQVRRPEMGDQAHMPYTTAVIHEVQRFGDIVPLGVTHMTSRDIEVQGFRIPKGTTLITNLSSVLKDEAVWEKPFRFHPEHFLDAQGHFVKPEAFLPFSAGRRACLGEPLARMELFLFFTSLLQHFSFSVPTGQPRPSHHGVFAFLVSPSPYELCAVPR

Cytochrome P450 1A2 = biological target: T5, Cytochrome P450 1A2 (Homo sapiens, UniProt P05177);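 further: PubChem cytochrome P450 panel assay, CYP1A2 panel member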
T5 sequence (P05177 whole entry): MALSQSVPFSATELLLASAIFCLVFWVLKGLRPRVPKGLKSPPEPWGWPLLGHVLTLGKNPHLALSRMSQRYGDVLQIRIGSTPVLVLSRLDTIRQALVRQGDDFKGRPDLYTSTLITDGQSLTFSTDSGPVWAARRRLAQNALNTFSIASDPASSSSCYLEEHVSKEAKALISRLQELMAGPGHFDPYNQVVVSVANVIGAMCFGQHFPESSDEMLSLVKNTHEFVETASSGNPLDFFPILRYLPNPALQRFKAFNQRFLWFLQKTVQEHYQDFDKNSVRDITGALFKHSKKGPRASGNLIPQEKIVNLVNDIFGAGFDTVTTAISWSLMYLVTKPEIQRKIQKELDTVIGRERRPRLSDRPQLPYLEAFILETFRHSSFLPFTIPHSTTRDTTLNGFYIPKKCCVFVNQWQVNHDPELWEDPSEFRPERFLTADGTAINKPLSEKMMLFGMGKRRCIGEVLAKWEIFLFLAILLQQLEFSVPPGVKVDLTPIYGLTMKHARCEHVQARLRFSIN

[9] = biological target: T6, RNA-binding protein pos-1 (Caenorhabditis elegans, UniProt G5EF15); test: disruptors of C. elegans POS-1 RNA interaction – biochemical, fluorescence polarization, dose response (AID 1964);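 further: purified POS-1 fused to maltose binding protein made in E. coli; potency of compounds blocking POS-1 binding to fluorescent RNA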
T6 sequence (G5EF15 whole entry): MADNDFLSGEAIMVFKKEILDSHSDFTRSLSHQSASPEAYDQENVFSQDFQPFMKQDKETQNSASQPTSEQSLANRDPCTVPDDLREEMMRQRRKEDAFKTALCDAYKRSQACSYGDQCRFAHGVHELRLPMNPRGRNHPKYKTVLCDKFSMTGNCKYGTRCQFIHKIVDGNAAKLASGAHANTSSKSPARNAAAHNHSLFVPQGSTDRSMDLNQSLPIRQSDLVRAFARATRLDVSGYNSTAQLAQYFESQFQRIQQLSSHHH

[10] = biological target: T7, Zinc finger protein mex-5 (Caenorhabditis elegans, UniProt Q9XUB2); test: potency of MEX-5 RNA-binding blockers – biochemical, C. elegans, fluorescence polarization, dose response (AID 1960)
T7 sequence (Q9XUB2 whole entry): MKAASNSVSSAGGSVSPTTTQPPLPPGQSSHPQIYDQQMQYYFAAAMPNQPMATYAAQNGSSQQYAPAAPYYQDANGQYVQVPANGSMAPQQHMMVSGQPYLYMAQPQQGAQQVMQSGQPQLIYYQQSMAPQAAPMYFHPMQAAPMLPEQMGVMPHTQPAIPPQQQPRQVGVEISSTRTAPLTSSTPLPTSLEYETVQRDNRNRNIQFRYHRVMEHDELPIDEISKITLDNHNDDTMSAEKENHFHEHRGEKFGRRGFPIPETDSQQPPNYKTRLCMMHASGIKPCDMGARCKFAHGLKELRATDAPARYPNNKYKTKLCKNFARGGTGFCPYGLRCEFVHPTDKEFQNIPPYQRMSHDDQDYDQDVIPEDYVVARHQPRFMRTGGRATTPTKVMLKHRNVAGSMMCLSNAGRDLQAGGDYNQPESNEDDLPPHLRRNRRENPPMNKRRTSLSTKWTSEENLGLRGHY

[11] = viability of PTEN-deleted HCT116 cells – cell-based, HCT116 PTEN knockout, dose response (AID 1047); format: functional;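 further: HCT116 colon tumor cells with PTEN knocked out; cells exposed to compound for 60 hours before readout; potency for loss of cell viability measured by luminescence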
[12] = viability of HCT116 lacking mutant beta-catenin – cell-based, human colon tumor, dose response (AID 1045); format: functional;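 further: HCT116 colon tumor cells with beta catenin knocked out; cells exposed to compound for 60 hours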

Q: For `O=C1c2ccccc2C(=O)N1c1ncc(Cc2ccc(Cl)cc2)s1`, which EC50 [1] is on record?
A: 2.43 µM (active)

Q: With `O=C(O)c1ccc(NC(=O)C2CCCCC2)cc1` as the molecule, how does the EC50 [1] read?
A: > 53 µM (inactive)

Q: For `CCCCCc1ccc(OCCCC[n+]2ccccc2)c(CCCCC)c1`, which IC50 [2] is on record?
A: > 20 µM (inactive)

Q: What about the EC50 (Streptococcus) of the same molecule?
A: 8.33 µM (active)

Q: And the EC50 [3]?
A: > 160 µM (inactive)

Q: And the EC50 [4]?
A: 3.85 µM (active)

Q: And the AC50 (INS1)?
A: 2.79 µM (active)

Q: What about the EC50 [5] of the same molecule?
A: < 0.03 µM (active)

Q: What about the EC50 (Streptokinase A) of the same molecule?
A: 27.1 µM (active)

Q: Which CC50 [6] does the source give for `O=C(Nc1ccc(OC(F)(F)F)cc1)c1ccc2c(c1)no[n+]2[O-]` here?
A: 20.6 µM (active)

Q: Which IC50 [2] does the source give for `CC(=O)c1ccccc1OCC(O)CN1CCN(CCN2C(=O)c3cccc4cccc(c34)C2=O)CC1` (stereo not given) here?
A: > 20 µM (inactive)

Q: And the CC50 [7]?
A: > 50 µM (active)

Q: What about the IC50 (H9c2) of the same molecule?
A: 23.1 µM (active)

Q: Which EC50 [8] does the source give for `CC1CC(C)CN(CCCNS(=O)(=O)c2cc(Br)cc3c2N(C(=O)C2CC2)CC3)C1` (stereo not given) here?
A: 0.0267 µM (active)

Q: Which IC50 [2] does the source give for `CN(C)CCNc1oc(COc2ccc(Cl)cc2Cl)nc1C#N` here?
A: > 20 µM (inactive)

Q: And the AC50 (Cytochrome P450 2D6)?
A: 14.1 µM (inconclusive)

Q: What about the AC50 (Cytochrome P450 1A2) of the same molecule?
A: 25.1 µM (inconclusive)

Q: Which results are given for `O=C(/C=C/c1ccco1)Nc1cccc(-c2nc3ccccc3[nH]2)c1`?
A: EC50 [3]: > 150 µM (inactive); CC50 [6]: 30.8 µM (active); EC50 [5]: 1.86 µM (active)

Q: What does the source list for `CC1(C)CC(=O)C2=C(C1)OC(N)=C(C#N)C2c1ccc2c(c1)OCO2` (stereo not given)?
A: EC50 [9]: > 300 µM (not active); EC50 [10]: > 300 µM (not active)

Q: What does the source list for `CC(=O)OC[C@H]1O[C@@H](O[C@@H]2C[C@H]3C(C)(C)[C@H](OC(C)=O)CC[C@]3(C)[C@H]3CC[C@]45C[C@]4(CC[C@H]5[C@@H](C)C[C@@H](O)[C@H](O)C(C)(C)O)[C@@]32C)[C@H](O)[C@@H](O)[C@@H]1O` [CUMINGIANOSIDE A]?
A: EC50 [11]: 8.19 µM (active); EC50 [12]: 8.05 µM (active); CC50 [6]: 27.7 µM (active)

Source: ChEMBL document CHEMBL1201862, “PubChem BioAssay data set” (2004)
